Patent publication US10322125B2, “TGF-beta enhancing compositions for cartilage repair and methods related thereto” (EMORY UNIVERSITY, priority 2013, dated 2019)

Tested on: 3TP-Lux luciferase reporter (TGF-β-responsive region of the PAI-1 gene) in C2C12 cells
Assay: C2C12 cell-based Dual-Luciferase reporter screening assay for TGF-β activity (3TP-Lux)
Design: species or system mouse
Details: FIG. 6
Description: The C2C12 cells, a mouse myoblast cell line, were obtained from the American Type Culture Collection (ATCC, Manassas, 8 VA). Cells were grown in Dulbecco's modified Eagle medium (DMEM, Gibco Life Technologies, Rockville, Md.) with 10% non heat inactivated fetal bovine serum (Atlanta Biologicals, Norcross, Ga.). The C2C12 cells at passages 4 to 7 were subcultured in T-75 cm2 flasks at 37° C. in a humidified atmosphere containing 5% CO2. When the flasks reached 80% confluence, the cells were trypsinized and seeded in triplicate at 50,000 cells/well in a 12-well plate for the Dual-Luciferase reporter assay.
The C2C12 cells were seeded at a 50,000 cell/well in 12-well plates on day 1. […]
For each well, a total of 1 μg DNA was used for the cotransfection and concentration of pGL4.74 Renilla luciferase vector was 1/15 of 3TP-Lux reporter plasmid. […] On day 5, the luciferase activity was measured using the luciferase assay kit (Promega, Madison, Wis.) according to the manufacturer's instructions on a luminescence reader (VictorTMX Light, PerkinElmer Life and Analytical Sciences, Waltham, Mass.). […]

TGF-β: Transforming growth factor beta, a secreted protein; cells were treated with TGF-β1 in the reporter assay
reporter response at higher TGF-β doses (doses ranging from 10 ng/ml to 100 ng/ml of TGF-β, compared with 5 ng/ml dose, DMSO instead of compounds): did not increase reporter response beyond 5 ng/ml dose
TGF-β dose at which maximum reporter response was reached (luciferase reporter assay, DMSO solvent instead of compounds): 5 ng/mL
